In PubChem BioAssay (NCI):
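Cultured in 96-well plates, cells were exposed to test compound for 48 hours across five concentrations. GI50 = concentration required for 50% inhibition of growth. The concentration for full growth arrest is given as TGI.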

Columns and labels:
Experiment in all cases: growth of human tumour cells (NCI), 48 h
UACC-62 melanoma = tested on: UACC-62 melanoma
LOX IMVI melanoma = tested on: LOX IMVI melanoma
OVCAR-8 ovarian = tested on: OVCAR-8 ovarian
RXF 393 renal = tested on: RXF 393 renal
HOP-92 NSCLC = tested on: HOP-92 NSCLC
COLO 205 colon = tested on: COLO 205 colon
KM12 colon = tested on: KM12 colon
M14 melanoma = tested on: M14 melanoma
SR leukemia = tested on: SR leukemia
CCRF-CEM leukemia = tested on: CCRF-CEM leukemia

Row | SMILES | GI50 (UACC-62 melanoma) | TGI (UACC-62 melanoma) | GI50 (LOX IMVI melanoma) | TGI (LOX IMVI melanoma) | GI50 (OVCAR-8 ovarian) | TGI (OVCAR-8 ovarian) | GI50 (RXF 393 renal) | TGI (RXF 393 renal) | GI50 (HOP-92 NSCLC) | TGI (HOP-92 NSCLC) | GI50 (COLO 205 colon) | TGI (COLO 205 colon) | GI50 (KM12 colon) | TGI (KM12 colon) | GI50 (M14 melanoma) | TGI (M14 melanoma) | GI50 (SR leukemia) | TGI (SR leukemia) | GI50 (CCRF-CEM leukemia) | TGI (CCRF-CEM leukemia)
1 | Cc1ccc(-c2c3c(nn2-c2ccc(S(N)(=O)=O)cc2)-c2ccccc2C3)cc1 | 11.3 µM | 24.1 µM | 18.2 µM | 40.5 µM | 36.4 µM | > 100 µM | 17 µM | 43.7 µM | 13.9 µM | 30.6 µM | 23 µM | 94.9 µM | 15.5 µM | 43.6 µM | 19.2 µM | 37.6 µM | 15.2 µM | 60.2 µM | 3.56 µM | > 100 µM
2 | CCCCC(C)C(OC(=O)CC(CC(=O)O)C(=O)O)C(CC(C)CC(O)CCCCC(O)CC(O)C(C)N)OC(=O)CC(CC(=O)O)C(=O)O (stereo not given) | – | > 100 µM | – | > 100 µM | – | > 100 µM | – | > 100 µM | – | > 100 µM | – | > 100 µM | – | > 100 µM | – | > 100 µM | – | > 100 µM | – | > 100 µM
3 | CCCCCCNC(=O)Oc1ccc(/C(=C(/C)Cc2ccc(OC)cc2)c2ccc(OCCCN(C)C)cc2)cc1 | 16.6 µM | 30.4 µM | 2.61 µM | 15.6 µM | 17.3 µM | 34.5 µM | 14.8 µM | 29.7 µM | 9.99 µM | 22.4 µM | 14.6 µM | 29.7 µM | 13.9 µM | 27.7 µM | 12.3 µM | 26.1 µM | 2.79 µM | 11.9 µM | 16.3 µM | 33.8 µM
4 | CN(Cc1cccc(F)c1)c1ccc(CO)c(Cl)c1 | 0.288 µM | 2.42 µM | 23.5 µM | 75.9 µM | 20.3 µM | > 100 µM | 8.72 µM | 41.7 µM | 3.37 µM | 28.1 µM | 5.46 µM | 19.3 µM | 20.5 µM | 79.6 µM | 20.4 µM | 83 µM | 24.4 µM | > 88.6 µM | 31.1 µM | > 100 µM
5 | CCN(CC)c1ccc(N=Nc2ccc([N+](=O)[O-])cc2OC(=O)/C=C/c2ccccc2)c(OC(=O)/C=C/c2ccccc2)c1 | – | > 74.8 µM | – | > 100 µM | – | > 100 µM | – | > 100 µM | – | > 100 µM | – | > 100 µM | – | > 35.8 µM | – | > 100 µM | – | > 100 µM | – | > 100 µM
6 | O=C(CN1CCN(c2cc3c(cc2F)c(=O)c(C(=O)O)cn3C2CC2)CC1)Nc1nc(-c2ccc(Cl)cc2)cs1 | 3.66 µM | > 100 µM | 3.39 µM | 19 µM | 3.26 µM | > 100 µM | 4.72 µM | > 100 µM | 2.73 µM | 7.91 µM | 4.82 µM | > 100 µM | 3.69 µM | > 100 µM | 4.54 µM | 28.6 µM | 3.58 µM | 53.1 µM | 4.39 µM | > 100 µM
7 | O=[N+]([O-])c1ccc(Oc2nc(Nc3ccc(O[C@H]4CO[C@H]5[C@@H]4OC[C@@H]5O)c(Cl)c3)ncc2F)c(Cl)c1 | 0.843 µM | 2.27 µM | 0.667 µM | 2.28 µM | 1.21 µM | > 100 µM | 0.787 µM | 2.91 µM | 0.807 µM | 2.65 µM | 1.42 µM | 3.78 µM | 0.41 µM | 2.22 µM | 0.565 µM | 1.93 µM | 0.548 µM | 7.79 µM | 0.718 µM | 7.2 µM
8 | CC1(C)O[C@@H](CCl)C[C@H](C#N)O1 | – | > 100 µM | – | > 100 µM | – | > 100 µM | – | > 100 µM | – | > 100 µM | – | > 100 µM | – | > 100 µM | – | > 100 µM | – | > 100 µM | – | > 100 µM
9 | O=[N+]([O-])c1ccc(C2CC(c3ccccc3Cl)=Nc3ccccc3S2=O)cc1 (stereo not given) | – | 6.73 µM | – | 3.79 µM | – | 11.7 µM | – | 4.05 µM | – | 31.5 µM | – | 22.1 µM | – | 9.97 µM | – | 20.7 µM | – | 6.64 µM | – | 4.37 µM
10 | CCN1C(=O)CCCc2c1ccc(Nc1ncc(Cl)c(NC3[C@@H](C(N)=O)[C@@H]4C=C[C@H]3C4)n1)c2OC (stereo not given in full) | 0.933 µM | 2.59 µM | 0.774 µM | 2.48 µM | 1.41 µM | 32.2 µM | 1.22 µM | 3.38 µM | 0.276 µM | 2.26 µM | 0.633 µM | 2.48 µM | 1.87 µM | 13.9 µM | 0.77 µM | 2.32 µM | 0.0556 µM | 19.7 µM | 0.607 µM | 17.9 µM
11 | O=C(CCC(=O)Nc1ccc(Cl)c(Cl)c1)CC(=O)c1ccc(F)cc1 | – | > 100 µM | – | > 100 µM | – | > 100 µM | – | > 100 µM | – | > 100 µM | – | > 100 µM | – | > 100 µM | – | > 100 µM | – | > 100 µM | – | > 100 µM
12 | FC(F)(F)c1ccc(-c2cnc(-n3cc(COCCN4CCCCC4)nn3)nc2NC2CCCCCC2)cc1 | 3.88 µM | 7.6 µM | 3.89 µM | 7.88 µM | 4.12 µM | 8.74 µM | 2.51 µM | 5.67 µM | 0.523 µM | 3.37 µM | 3.86 µM | 8.57 µM | 4.27 µM | 8.08 µM | 4.34 µM | 9.01 µM | 2.61 µM | 7.73 µM | 4.23 µM | 10.7 µM
13 | CCOC(=O)c1c(C)n(Cc2ccccc2)c2c1cc(O)c1[nH]c(Cc3ccccc3)nc12 | 23.8 µM | > 100 µM | 13.8 µM | > 67.8 µM | 29.6 µM | > 100 µM | 3.4 µM | 14.8 µM | 20.2 µM | 68.8 µM | 24.7 µM | > 54.8 µM | 4.36 µM | > 43.7 µM | > 50.7 µM | > 100 µM | 3.23 µM | 25.3 µM | > 21.4 µM | > 100 µM
14 | COc1cc2c(cc1OC)C(Sc1ccc(SC)cc1)c1c(nc(N)c(C#N)c1N)O2 (stereo not given) | 1.23 µM | 2.51 µM | 1.28 µM | 2.55 µM | 1.93 µM | 3.47 µM | 1.25 µM | 2.52 µM | 1.96 µM | 3.86 µM | 1.71 µM | 3.41 µM | 1.81 µM | 3.46 µM | 1.74 µM | 3.24 µM | 0.354 µM | 2.35 µM | 0.571 µM | 4.28 µM
